Data set [1] is described as follows: Solubility of compound at pH 4. The note with it: buffer. The class given is physicochemical.
Data set [2] can be described thus: Cmax in rat at 30 mg/kg, po. More on the design: route oral, dose 30 mg/kg. The note with it: in vivo. The class given is ADME, organism-based.
The nature of data set [3]: Cmax in monkey at 2.5 mg/kg, iv. The note with it: rhesus monkey, in vivo. Details: route intravenous, dose 2.5 mg/kg. Type of data set: ADME, organism-based, Macaca mulatta.
The target of data set [4] is Trypsin (Homo sapiens, UniProt P07477+P07478+P35030). Briefly: Inhibition of human trypsin using Nalpha-Benzoyl-L-Arginine p-nitroaniline as substrate measured after 5 mins by plate reader analysis. Type of data set: protein assay.
Data set [5] can be described thus: Half life in monkey at 2.5 mg/kg, iv. The note with it: rhesus monkey, in vivo. Type of data set: ADME, organism-based, Macaca mulatta.
Data set [6] in a line: Oral bioavailability in rat at 30 mg/kg. The class given is ADME, organism-based. The note with it: in vivo.
The nature of data set [7]: Tmax in monkey at 25 mg/kg, po. The class given is ADME, organism-based, Macaca mulatta. The note with it: rhesus monkey, in vivo.
In data set [8] the target is Tissue-type plasminogen activator (Homo sapiens, UniProt P00750). Put plainly: Inhibition of recombinant human tPA using H-D-Isoleucyl-L-prolyl-L-arginine p-nitroaniline dihydrochloride as substrate measured after 5 mins by plate reader analysis.
Sequence of Tissue-type plasminogen activator (P00750 whole entry): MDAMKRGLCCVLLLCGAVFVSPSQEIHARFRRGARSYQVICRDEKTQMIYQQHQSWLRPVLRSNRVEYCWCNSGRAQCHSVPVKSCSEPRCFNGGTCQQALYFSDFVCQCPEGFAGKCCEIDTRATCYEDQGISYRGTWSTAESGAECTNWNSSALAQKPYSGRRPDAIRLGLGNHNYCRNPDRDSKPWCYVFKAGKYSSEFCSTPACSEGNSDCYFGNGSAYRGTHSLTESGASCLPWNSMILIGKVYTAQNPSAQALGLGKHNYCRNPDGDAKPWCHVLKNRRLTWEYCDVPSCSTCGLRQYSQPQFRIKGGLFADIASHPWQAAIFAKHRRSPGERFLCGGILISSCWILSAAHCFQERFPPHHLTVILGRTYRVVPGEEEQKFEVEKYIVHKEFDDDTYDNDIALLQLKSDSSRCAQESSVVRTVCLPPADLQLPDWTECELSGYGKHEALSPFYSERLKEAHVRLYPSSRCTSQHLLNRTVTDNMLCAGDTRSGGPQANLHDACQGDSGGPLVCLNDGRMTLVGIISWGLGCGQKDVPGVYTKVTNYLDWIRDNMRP
Data set [9] is described as follows: Clearance in rat at 30 mg/kg, po. The class given is ADME, organism-based. The note with it: in vivo.
Data set [10] in a line: Solubility of compound at pH 7. Type of data set: physicochemical. The note with it: buffer.
Data set [11] is described as follows: Clearance in monkey at 25 mg/kg, po. The class given is ADME, organism-based, Macaca mulatta. The note with it: rhesus monkey, in vivo.
Data set [12] in a line: AUC(0 to 24 hrs) in rat at 30 mg/kg, po. Type of data set: ADME, organism-based. Details: time < 24 hr, route oral, dose 30 mg/kg. The note with it: in vivo.
Data set [13] in a line: AUC(0 to 24 hrs) in rat at 3 mg/kg, iv. The note with it: in vivo. The class given is ADME, organism-based. More on the design: time < 24 hr, route intravenous, dose 3 mg/kg.
A short description of data set [14]: Tmax in rat at 30 mg/kg, po. The class given is ADME, organism-based. The note with it: in vivo.
The nature of data set [15]: Clearance in rat at 3 mg/kg, iv. The class given is ADME, organism-based. The note with it: in vivo.
Data set [16] can be described thus: Cmax in monkey at 25 mg/kg, po. Type of data set: ADME, organism-based, Macaca mulatta. More on the design: route oral, dose 25 mg/kg. The note with it: rhesus monkey, in vivo.
Data set [17] in a line: Cmax in rat at 10 mg/kg, po. Type of data set: ADME, organism-based. More on the design: route oral, dose 10 mg/kg. The note with it: in vivo.
Data set [18] can be described thus: Half life in rat at 3 mg/kg, iv. The class given is ADME, organism-based. The note with it: in vivo.
Data set [19] can be described thus: Half life in monkey at 25 mg/kg, po. The class given is ADME, organism-based, Macaca mulatta. The note with it: rhesus monkey, in vivo.
Data set [20] can be described thus: Cmax in rat at 3 mg/kg, iv. Type of data set: ADME, organism-based. More on the design: route intravenous, dose 3 mg/kg. The note with it: in vivo.
Data set [21] in a line: AUC(0 to 96 hrs) in rat at 30 mg/kg, po. The note with it: in vivo. More on the design: time < 96 hr, route oral, dose 30 mg/kg. Type of data set: ADME, organism-based.
Data set [22] in a line: Clearance in monkey at 2.5 mg/kg, iv. Type of data set: ADME, organism-based, Macaca mulatta. The note with it: rhesus monkey, in vivo.
The target in data set [23] is Coagulation factor X (Homo sapiens, UniProt P00742). Put plainly: Inhibition of human factor 10a using N-a-Benzyloxycarbonyl-D-arginyl-L-glycyl-L-arginine-pnitroaniline-dihydrochloride as substrate measured after 5 mins by plate reader analysis.
Sequence of Coagulation factor X (P00742 41-179 limits assumed): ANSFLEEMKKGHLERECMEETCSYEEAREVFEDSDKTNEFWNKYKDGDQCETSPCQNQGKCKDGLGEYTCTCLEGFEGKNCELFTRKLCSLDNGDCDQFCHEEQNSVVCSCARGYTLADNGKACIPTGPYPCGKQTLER
Sequence of Coagulation factor X (P00742 235-488 limits assumed): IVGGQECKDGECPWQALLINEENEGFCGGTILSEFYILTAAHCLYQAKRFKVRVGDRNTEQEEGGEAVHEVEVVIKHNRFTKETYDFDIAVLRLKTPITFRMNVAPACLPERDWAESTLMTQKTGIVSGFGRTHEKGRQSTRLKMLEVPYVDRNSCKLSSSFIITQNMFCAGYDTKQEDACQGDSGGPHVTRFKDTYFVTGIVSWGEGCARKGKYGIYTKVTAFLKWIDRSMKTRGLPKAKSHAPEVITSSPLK
Data set [24] in a line: AUC in rat at 10 mg/kg, po after 24 hrs. More on the design: route oral, time 24 hrs, dose 10 mg/kg. Type of data set: ADME, organism-based. The note with it: in vivo.
The nature of data set [25]: AUC(0 to 96 hrs) in rat at 3 mg/kg, iv. Type of data set: ADME, organism-based. More on the design: time < 96 hr, route intravenous, dose 3 mg/kg. The note with it: in vivo.
Data set [26] is described as follows: Oral bioavailability in monkey at 25 mg/kg. The class given is ADME, organism-based, Macaca mulatta. The note with it: rhesus monkey, in vivo.
For data set [27], the target named is Plasminogen (Homo sapiens, UniProt P00747). Briefly: Inhibition of human plasmin using Z-Lys-SBzl as substrate measured immediately by plate reader analysis.
Sequence of Plasminogen (P00747 97-580 limits assumed): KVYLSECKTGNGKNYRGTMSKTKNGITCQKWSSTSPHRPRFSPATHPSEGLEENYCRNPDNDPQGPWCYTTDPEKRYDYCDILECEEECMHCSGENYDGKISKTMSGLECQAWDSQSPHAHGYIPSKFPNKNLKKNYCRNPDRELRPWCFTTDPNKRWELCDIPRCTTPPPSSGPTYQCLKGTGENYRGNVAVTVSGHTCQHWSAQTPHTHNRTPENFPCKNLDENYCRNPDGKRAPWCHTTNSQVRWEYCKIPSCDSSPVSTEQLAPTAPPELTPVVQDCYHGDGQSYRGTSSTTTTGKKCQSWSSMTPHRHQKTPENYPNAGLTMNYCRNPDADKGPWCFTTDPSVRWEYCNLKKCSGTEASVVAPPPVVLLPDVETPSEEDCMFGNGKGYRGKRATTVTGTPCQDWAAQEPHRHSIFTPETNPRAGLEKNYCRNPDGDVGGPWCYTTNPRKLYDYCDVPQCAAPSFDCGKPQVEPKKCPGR
Sequence of Plasminogen (P00747 581-810 limits assumed): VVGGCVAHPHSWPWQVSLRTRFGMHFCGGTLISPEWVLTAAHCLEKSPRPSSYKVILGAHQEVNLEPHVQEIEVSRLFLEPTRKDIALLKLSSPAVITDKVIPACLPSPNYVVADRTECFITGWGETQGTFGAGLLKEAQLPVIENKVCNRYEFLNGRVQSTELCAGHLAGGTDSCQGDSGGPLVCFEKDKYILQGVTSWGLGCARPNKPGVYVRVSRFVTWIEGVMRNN
Data set [28] addresses T1, Complement C1s subcomponent (Homo sapiens, UniProt P09871).
T1 sequence (P09871 whole entry): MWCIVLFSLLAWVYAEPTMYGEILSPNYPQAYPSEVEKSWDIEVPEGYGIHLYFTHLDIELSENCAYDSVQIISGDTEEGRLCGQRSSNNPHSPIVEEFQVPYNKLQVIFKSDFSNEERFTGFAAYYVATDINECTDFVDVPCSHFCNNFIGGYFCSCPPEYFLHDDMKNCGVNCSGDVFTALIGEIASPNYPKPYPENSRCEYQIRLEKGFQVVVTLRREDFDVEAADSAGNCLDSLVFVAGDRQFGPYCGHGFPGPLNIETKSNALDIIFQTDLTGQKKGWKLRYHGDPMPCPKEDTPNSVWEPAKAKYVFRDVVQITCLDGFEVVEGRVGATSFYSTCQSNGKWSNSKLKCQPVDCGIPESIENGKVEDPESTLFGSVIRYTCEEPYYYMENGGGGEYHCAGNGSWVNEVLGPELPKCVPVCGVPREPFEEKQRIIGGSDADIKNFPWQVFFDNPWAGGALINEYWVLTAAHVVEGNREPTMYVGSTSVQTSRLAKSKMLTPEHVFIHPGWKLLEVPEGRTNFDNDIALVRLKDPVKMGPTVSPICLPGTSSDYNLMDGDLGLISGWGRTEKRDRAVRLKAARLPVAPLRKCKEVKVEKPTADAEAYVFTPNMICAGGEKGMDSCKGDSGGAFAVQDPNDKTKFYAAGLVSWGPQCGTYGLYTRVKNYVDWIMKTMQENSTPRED
Put plainly: Inhibition of human C1s using […] as substrate measured immediately by plate reader analysis.

The target of data set [29] is Prothrombin (Homo sapiens, UniProt P00734). Briefly: Inhibition of human thrombin using Nalpha-Benzoyl-Phe-Val-Arg p-nitroaniline as substrate measured after 5 mins by plate reader analysis.
Data set [30] has as its target T2, Coagulation factor XII (Homo sapiens, UniProt P00748).
T2 sequence (P00748 whole entry): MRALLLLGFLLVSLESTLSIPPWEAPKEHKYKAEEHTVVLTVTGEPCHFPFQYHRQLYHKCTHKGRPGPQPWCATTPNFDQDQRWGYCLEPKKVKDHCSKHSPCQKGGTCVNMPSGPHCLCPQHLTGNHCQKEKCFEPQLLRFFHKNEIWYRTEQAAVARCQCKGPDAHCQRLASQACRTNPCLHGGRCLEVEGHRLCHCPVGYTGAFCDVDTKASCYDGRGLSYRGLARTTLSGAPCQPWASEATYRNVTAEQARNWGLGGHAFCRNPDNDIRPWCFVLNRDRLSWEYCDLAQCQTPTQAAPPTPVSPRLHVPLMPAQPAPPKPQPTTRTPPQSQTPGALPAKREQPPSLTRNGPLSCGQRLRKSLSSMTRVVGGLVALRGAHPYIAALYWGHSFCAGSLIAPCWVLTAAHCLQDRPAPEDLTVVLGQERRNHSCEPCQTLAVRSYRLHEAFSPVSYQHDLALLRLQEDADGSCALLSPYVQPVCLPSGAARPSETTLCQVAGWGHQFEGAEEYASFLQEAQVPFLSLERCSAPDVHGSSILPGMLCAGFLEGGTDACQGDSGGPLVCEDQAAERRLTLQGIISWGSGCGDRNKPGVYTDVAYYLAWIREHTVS
Put plainly: Inhibition of human factor 12a using D-prolyl-L-phenylalanyl-L-arginine-p-nitroaniline as substrate measured after 5 mins by plate reader analysis.

Data set [31] can be described thus: AUC(0 to 24 hrs) in monkey at 2.5 mg/kg, iv. The class given is ADME, organism-based, Macaca mulatta. More on the design: time < 24 hr, route intravenous, dose 2.5 mg/kg. The note with it: rhesus monkey, in vivo.
Data set [32] can be described thus: AUC(0 to 24 hrs) in monkey at 25 mg/kg, po. The class given is ADME, organism-based, Macaca mulatta. More on the design: time < 24 hr, route oral, dose 25 mg/kg. The note with it: rhesus monkey, in vivo.
Data set [33] can be described thus: Half life in rat at 30 mg/kg, po. The class given is ADME, organism-based. The note with it: in vivo.
Data set [34] deals with Plasma kallikrein (Homo sapiens, UniProt P03952). Put plainly: Inhibition of purified human plasma kallikrein assessed as inhibition constant using H-D-Pro-Phe-Arg-pNA.2HCl as substrate measured after 3 mins by microplate reader analysis.
Sequence of Plasma kallikrein (P03952 20-390 limits assumed): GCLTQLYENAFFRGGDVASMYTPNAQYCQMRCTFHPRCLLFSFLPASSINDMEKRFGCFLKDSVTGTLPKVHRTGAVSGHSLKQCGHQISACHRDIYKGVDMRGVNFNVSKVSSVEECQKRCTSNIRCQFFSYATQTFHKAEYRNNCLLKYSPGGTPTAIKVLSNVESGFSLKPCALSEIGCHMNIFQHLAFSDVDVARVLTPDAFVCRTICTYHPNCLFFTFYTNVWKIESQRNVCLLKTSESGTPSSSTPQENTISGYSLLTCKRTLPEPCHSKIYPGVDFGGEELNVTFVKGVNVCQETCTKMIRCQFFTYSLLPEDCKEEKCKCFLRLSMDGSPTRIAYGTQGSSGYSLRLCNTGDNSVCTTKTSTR
Sequence of Plasma kallikrein (P03952 391-638 limits assumed): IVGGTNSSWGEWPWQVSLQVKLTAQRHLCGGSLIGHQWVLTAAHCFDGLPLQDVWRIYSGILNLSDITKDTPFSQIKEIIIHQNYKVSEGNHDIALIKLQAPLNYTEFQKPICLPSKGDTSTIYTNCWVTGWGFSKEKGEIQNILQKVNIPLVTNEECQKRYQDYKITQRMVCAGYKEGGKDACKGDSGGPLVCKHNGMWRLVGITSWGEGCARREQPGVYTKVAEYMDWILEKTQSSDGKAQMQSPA
Data set [35] is filed under the species Homo sapiens. Put plainly: Selectivity index, ratio of IC50 for human trypsin to IC50 for human plasma kallikrein.

pIC50, pKi: −log10 of the molar value. In brackets after ≈: the same amount, converted by molar mass.

On to `N#Cc1cccc([C@@H](NCC2CC2)c2ccc(F)c(NC(=O)c3cc(C(F)(F)F)nn3-c3cccc(CN)c3)c2)c1` (stereo in doubt) [BEROTRALSTAT], for which the solubility (usually how much of the substance goes into solution per volume) in [1] came out at 120 µg/mL (≈ 213 µM); in data set [10], 160 µg/mL (≈ 284 µM). The Cmax (in general, the highest concentration seen after dosing) in [2] came to 475 ng/mL; in [3], 673 ng/mL; in data set [16], 342 ng/mL; in data set [17] it was 242 ng/mL; in data set [20], 773 ng/mL. Moreover, the IC50 (as a rule, the point on the concentration scale where inhibition reaches its midpoint) in data set [4] is 11 µM. Besides, the half-life (in general, how long it takes for the measured level to halve) was 18.3 h in data set [5], 10.1 h in [18], 22.7 h in data set [19] and 18.5 h in data set [33]. The bioavailability (commonly the share of a dose that reaches the circulation, judged against a reference dose that is usually intravenous) stood at 33% in data set [6] and 45% in data set [26]. Moreover, the Tmax (in general, the time from dosing to the highest level) in [7] was 4.7 h; in [14] it was 2 h. Further, the negative-log IC50 (pIC50) (in general, the IC50 on a negative log10 scale, so that one unit is a factor of ten) is less than 4.30 in data set [8]; less than 4.30 in data set [23]; 5.40 in data set [27]; less than 4.30 in [28]; less than 4.30 in data set [29]; less than 4.30 in data set [30]. The apparent clearance CL/F (as a rule, the apparent clearance, not corrected for the fraction that reaches the circulation) amounted to 81 mL/min/kg in data set [9] and 73 mL/min/kg in data set [11]. For the same compound, the area under the curve AUC(0-t) (in general, the area under the concentration-time curve up to a stated or last time point) at 24 h in [12] amounted to 4780 ng·h/mL; in data set [13], 1620 ng·h/mL; in data set [31] it was 974 ng·h/mL; in data set [32] it was 4150 ng·h/mL. Further, the values for the clearance in data set [15] and in data set [22] were 27 mL/min/kg and 30 mL/min/kg, respectively. Also, the exposure AUC(0-t) at 96 h in data set [21] was found to be 6180 ng·h/mL; in data set [25], 1860 ng·h/mL. Further, the exposure (AUC) (usually the area under the concentration-time curve, a measure of exposure) at 24 h in [24] came to 2210 ng·h/mL.
With `C=Cc1cc(C(=O)Nc2ccc(C(=N)N)cc2)c(-c2ccc(C(=O)NCC3CC3)nc2C(=O)O)cc1OC` [AVORALSTAT], the solubility in [1] was 47000 µg/mL (≈ 91500 µM); in [10], 1090 µg/mL (≈ 2120 µM). Also, the pKi (commonly −log10 of the Ki, conventionally taken in molar units) in [34] was 9.59. Further, in [35], the Ratio IC50 was found to be 8192.

The values are drawn from ChEMBL document CHEMBL4842368, “Berotralstat (BCX7353): Structure-Guided Design of a Potent, Selective, and Oral Plasma Kallikrein Inhibitor to Prevent Attacks of Hereditary Angioedema (HAE)” (J Med Chem, 2021).
